System: P12-Ichikawa
Assay: cell viability relative to DMSO control; higher = less cytotoxic
Details: 48 h
Summary of the method: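 NOMO1, SEM and P12-Ichikawa leukemia cells spent at least four passages adapting to each medium before use. They were seeded at 500 cells/well (NOMO1, SEM) or 1000 cells/well (P12-Ichikawa) in 5 μl in 1536-well plates and pin-dosed with library compounds in DMSO at 11 threefold steps from 47 μM down to 0.79 nM. After 48 h at 37°C, CellTiter-Glo One luminescence was read. Viability is reported as a percentage of the DMSO wells on each plate, with cell-free wells as background.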

[1] = HPLM + 10% dialyzed FBS, 0.000781 µM
[2] = HPLM + 10% dialyzed FBS, 0.00234 µM
[3] = HPLM + 10% dialyzed FBS, 0.00702 µM
[4] = HPLM + 10% dialyzed FBS, 0.0211 µM
[5] = HPLM + 10% dialyzed FBS, 0.0632 µM
[6] = HPLM + 10% dialyzed FBS, 0.19 µM
[7] = HPLM + 10% dialyzed FBS, 0.569 µM
[8] = HPLM + 10% dialyzed FBS, 1.71 µM
[9] = HPLM + 10% dialyzed FBS, 5.12 µM
[10] = HPLM + 10% dialyzed FBS, 15.4 µM
[11] = HPLM + 10% dialyzed FBS, 46.1 µM
[12] = RPMI 5 mM glucose + 10% FBS, 0.000781 µM
[13] = RPMI 5 mM glucose + 10% FBS, 0.00234 µM
[14] = RPMI 5 mM glucose + 10% FBS, 0.00702 µM
[15] = RPMI 5 mM glucose + 10% FBS, 0.0211 µM
[16] = RPMI 5 mM glucose + 10% FBS, 0.0632 µM
[17] = RPMI 5 mM glucose + 10% FBS, 0.19 µM
[18] = RPMI 5 mM glucose + 10% FBS, 0.569 µM
[19] = RPMI 5 mM glucose + 10% FBS, 1.71 µM
[20] = RPMI 5 mM glucose + 10% FBS, 5.12 µM
[21] = RPMI 5 mM glucose + 10% FBS, 15.4 µM
[22] = RPMI 5 mM glucose + 10% FBS, 46.1 µM
[23] = RPMI 5 mM glucose + 10% dialyzed FBS, 0.000781 µM
[24] = RPMI 5 mM glucose + 10% dialyzed FBS, 0.00234 µM
[25] = RPMI 5 mM glucose + 10% dialyzed FBS, 0.00702 µM
[26] = RPMI 5 mM glucose + 10% dialyzed FBS, 0.0211 µM
[27] = RPMI 5 mM glucose + 10% dialyzed FBS, 0.0632 µM
[28] = RPMI 5 mM glucose + 10% dialyzed FBS, 0.19 µM
[29] = RPMI 5 mM glucose + 10% dialyzed FBS, 0.569 µM
[30] = RPMI 5 mM glucose + 10% dialyzed FBS, 1.71 µM
[31] = RPMI 5 mM glucose + 10% dialyzed FBS, 5.12 µM
[32] = RPMI 5 mM glucose + 10% dialyzed FBS, 15.4 µM
[33] = RPMI 5 mM glucose + 10% dialyzed FBS, 46.1 µM

Structure (SMILES)	cell viability [1] [%]	cell viability [2] [%]	cell viability [3] [%]	cell viability [4] [%]	cell viability [5] [%]	cell viability [6] [%]	cell viability [7] [%]	cell viability [8] [%]	cell viability [9] [%]	cell viability [10] [%]	cell viability [11] [%]	cell viability [12] [%]	cell viability [13] [%]	cell viability [14] [%]	cell viability [15] [%]	cell viability [16] [%]	cell viability [17] [%]	cell viability [18] [%]	cell viability [19] [%]	cell viability [20] [%]	cell viability [21] [%]	cell viability [22] [%]	cell viability [23] [%]	cell viability [24] [%]	cell viability [25] [%]	cell viability [26] [%]	cell viability [27] [%]	cell viability [28] [%]	cell viability [29] [%]	cell viability [30] [%]	cell viability [31] [%]	cell viability [32] [%]	cell viability [33] [%]
COc1cc(C(=O)NC2CCN(C)CC2)ccc1Nc1ncc2c(n1)N(C1CCCC1)CCC(=O)N2C(C)C	104	102	103	110	109	110	85	109	79.2	26.3	4.5	107	103	95.1	112	108	116	89.6	114	73.4	42.7	5.67	98.1	104	111	110	111	106	92.3	107	71.2	54.1	6
O=C(O)CCCCCC(=O)NN=C1CCCC1	96.2	103	99.4	108	110	107	115	116	111	99.7	73.2	89	103	104	113	105	112	106	120	104	112	105	85.4	98.8	103	100	107	98.1	113	99.3	105	104	109
CN(C)CCCC1(c2ccc(F)cc2)OCc2cc(C#N)ccc21 (centres undefined)	98.8	96.8	95.5	90.1	95.1	94.8	91.8	99.9	69.7	87.7	74.7	91	83.8	88.2	91.1	96.4	89.7	87.1	85.8	83.2	82.5	74.3	90.6	97.3	91.1	92.7	94.4	92.3	89.3	91.9	78.5	80.2	78.4
